Test results taken from patent US10080779B2, “Method for increasing the expression of anti-microbial peptides by keratinocytes comprising administering a composition comprising IL-17, TNF-alpha and OSM” (Universite D'Angers, priority 2004, dated 2018).

B1: IL-31: cytokine whose receptor is a heterodimer of GPL and an OSMR subunit (protein, UniProt Q6EBC2 24-164, looked up)
Interleukin-31: SHTLPVRLLRPSDDVQKIVEELQSLSKMLLKDVEEEKGVLVSQNYTLPCLSPDAQPPNNIHSPAIRAYLKTIRQLDNKSVIDEIIEHLDKLIFQDAPETNISVPTDTHECKRFILTISQQFSECMDLALKSLTSGAQQATT

Experiments:
NHEK [1] = test: cDNA macroarrays analysis of 36 cytokines on 154 genes in NHEK; type: cell-based, human; conditions: 10 ng/ml, 24 h
Method: The comparison of the effects of 36 different cytokines on the expression of 154 genes of potential interest for skin physiology was performed using home-made cDNA macroarrays analysis. After cytokine stimulation, total RNA was extracted using TRIzoI® Reagent (Invitrogen life Technologies) and conventional 33P-cDNA target synthesis and hybridization were performed (Boniface et al, 2007). Genes were considered regulated if expression levels differed more than 3-fold relative to untreated control and 3-fold relative to mean background noise.

NHEK [2] = test: Cytokine measurement by ELISA in NHEK culture supernatants; type: cell-based, human; conditions: 96 h
Method: (§1) NHEK were obtained as previously described, from surgical samples of healthy breast skin (Boniface et al, 2005). NHEK were cultured to 80% of confluence and then starved for 24 h in Keratinocyte SFM without addition of growth factors before stimulation. Cells were stimulated with or without 10 ng/ml of recombinant IL-17A, OSM, TNFα, IL-22 and IL-1α alone or in combination (R&D systems Europe, Lille, France) during 24 h for mRNA quantification or 48 h to 96 h for protein quantification.
Levels of BD2, BD3 and CXCL8 were determined using Human ELISA development kit (Peprotech), and CXCL1 and CXCL5 with DuoSet reagents (R&D Systems Europe).

RHE [3] = test: RHE histology and immunohistochemistry (Example 14); type: cell-based, human; conditions: single cytokines, 72 h
Method: (§2) Normal human epidermal keratinocytes (NHEK) were obtained as previously described, from surgical samples of healthy breast skin (Boniface et al, 2005). NHEK were cultured to 80% of confluence allowing the expression of a large panel of keratinocyte differentiation markers, and then starved for 24 h in Keratinocyte SFM containing 0.03 mM Ca^2+ (Invitrogen Life Technologies, Cergy Pontoise, France) before stimulation. Confluent differentiated cells were stimulated with or without recombinant IL-17A, OSM, TNFα, IL-22 and IL-1α alone at maximum effective concentrations (reported previously around 10 ng/ml (Boniface et al, 2005 and Boniface et al, 2007)) or in combination (R&D systems Europe, Lille, France) during 2 h to 72 h for mRNA quantification. RHE were generated on polycarbonate culture inserts, from surgical samples of paediatric foreskins as previously described (Guenou et al., 2009). RHE were stimulated with or without recombinant IL-17A, OSM, TNFα, IL-22 and IL-1α alone or in combination, with or without a Janus protein Tyrosine Kinases (JAKs) inhibitor 10 μM (Calbiochem, 420099), during 24 h for mRNA quantification or during 72 h for immunohistological analysis.
RHE were washed and fixed with formaldehyde solution. Fixed tissues were dehydrated with increasing ethanol concentrations, embedded in paraffin and sections were carried out using a microtome (4 μm thickness). The sections were deparaffinised, washed and incubated with hydrogen peroxide. The sections were incubated with anti-CK10 (SantaCruz, SC-23877), anti-LOR (Eurogentec, PRB-145P), anti-FLG (SantaCruz, SC-66192), anti-IVL (Biomedical Technologies, BT-601), anti-S100A7 (Clinisciences, IMG-409A) and then detected using a biotin-conjugated secondary antibody (Vector, RTU vectastain universal quick kit, PK-7800). After peroxidase-conjugated streptavidine (Vector, RTU vectastain universal quick kit, PK-7800) and peroxidase substrate addition (Dako, Substrat hyper-sensible AEC+), nuclei were counter-stained using a solution of hematoxylin. Sections were observed using a NIKON E400 microscope. The images were captured using a NIKON DS-Ril and processed with NIS-Elements 3.10 software.

NHEK [4] = test: RT-QPCR of antimicrobial peptide and chemokine genes in NHEK; type: cell-based, human; conditions: 10 ng/ml, 24 h
Method: as §1
NHEK and skin total RNA were isolated and reverse-transcribed as previously described (Boniface et al, 2005). Quantitative real time PCR was carried using the LightCycler-FastStart DNA Master SYBR® Green I kit on LightCycler 480 (Roche Diagnostics, Meylan, France). The reaction components were 1×DNA Master Mix, and 0.5 μM of HPLC purified sense and anti-sense oligonucleotides purchased from Eurogentec (Eurogentec France, Angers, France), designed using Primer3 software. Samples were normalized to three independent control housekeeping genes (G3PDH, RPL13A or ACTB for human samples and G3PDH, HMBS or B2m for mouse samples) and reported according to the ΔΔCT method as RNA fold increase: 2^ΔΔCT=2^ΔCT sample−ΔCT eference. For comparison of normal skin and psoriatic skin the REST 2008 software was used (Pfaffl et al., 2002).

NHEK [5] = test: Keratinocyte differentiation marker (KDM) mRNA in NHEK (RT-PCR); type: cell-based, human; conditions: 24 h; for mRNA expression of CK1, DSG1, DSC1, FLG, CLSP, LOR and FABPS: single cytokines 10 ng/ml
Method: as §2
(§3) NHEK, RHE and murine skin total RNA were isolated using NucleoSpin® RNA II kit (Macherey-Nagel, Hoerdt, France) and reverse-transcribed with SuperScript® II Reverse Transcriptase (Invitrogen Life Technologies) according to the manufacturer's instructions. Quantitative real time PCR was carried out using the LightCycler-FastStart DNA Master SYBR® Green I kit on LightCycler 480 (Roche Diagnostics, Meylan, France). The reaction components were 1×DNA Master Mix, and 0.5 μM of HPLC purified sense and anti-sense oligonucleotides purchased from Eurogentec (Eurogentec France, Angers, France), designed using Primer3 software. The stability of the housekeeping gene expression has been assessed by using GeNorm algorithm. […] Thus samples were normalized to G3PDH housekeeping gene and reported according to the ΔΔCT method as RNA fold increase: 2^ΔΔCT=2^ΔCT sample−ΔCT reference.

[6] = tested on: normal human keratinocytes (NHEK); test: Cytokine cocktails on S100A7, hBD2/4, KRT10 mRNA in NHEK (RT-Q-PCR); type: cell-based; conditions: NHEK 24 hrs, 1 ng/ml each
Method: (§4) Quantitative real time PCR was carried out using the LightCycler-FastStart DNA Master^PLUS SYBR Green I kit (Roche, Mannheim, Germany). The reaction components were 1× FastStart DNA Master^PLUS SYBR Green I and 0.5 μM of forward and reverse primers for S100A7 (forward 5′-[…]-3′ (SEQ ID No: 9) and reverse 5′-[…]-3′ (SEQ ID No: 10)), S100A8 (Pattyn, Speleman et al. 2003), S100A9 (forward 5′-[…]-3′ (SEQ ID No: 11) and reverse 5′-[…]-3′ (SEQ ID No: 12)), hBD2/4 (forward 5′-[…]-3′ (SEQ ID No: 13) and reverse 5′-[…]-3′ (SEQ ID No: 14)), KRT10 (forward 5′-[…]-3′ (SEQ ID No: 15) and reverse 5′-[…]-3′ (SEQ ID No: 16)), and hydroxymethyl-bilane synthase (HMBS) as a housekeeping gene (Vandesompele, De Preter et al. 2002). After cDNA fluorescent quantification using propidium iodide, 250 ng, 25 ng and 2.5 ng of cDNA were added as PCR template in the LightCycler glass capillaries. The cycling conditions comprised a 10 min polymerase activation at 95° C. and 50 cycles at 95° C. for 10 s, 64° C. for 5 s and 72° C. for 18 s with a single fluorescence measurement. […] A mathematical model was used to determine the relative quantification of target genes compared to HMBS reference gene (Pfaffl 2001).
To that aim, confluent normal human keratinocytes (NHEK) were treated for 24 hrs with the indicated mix of cytokines (each cytokine at 1 ng/ml final concentration). Total RNA was extracted, reverse-transcribed and the expression of the selected genes was analyzed by real-time PCR as described.

RHE [7] = test: KDM mRNA in reconstituted human epidermis (RT-PCR); type: cell-based; conditions: 24 h
Method: as §2, §3

STAT3 = STAT3 phosphorylation in NHEK (Western blot); type: cell-based, human; conditions: NHEK stimulated 15 min with the cytokine
Method: For STAT3 and MAPK phosphorylation, NHEK were stimulated for 15 min in the presence of the indicated cytokine. Cells were lysed in SDS sample buffer (62.5 mM Tris-HCl pH 6.8, 2% SDS, 10% glycerol, 50 mM DTT, 0.1% bromophenol blue), sonicated and then submitted to SDS-PAGE and transferred onto an Immobilon membrane. The membranes were subsequently incubated overnight with the primary antibody, before being incubated with the appropriate peroxidase-labelled secondary antibody for 60 min. The reaction was visualized by chemiluminescence according to the manufacturer's instructions. Membranes were stripped in 0.1 M glycine pH 2.8 for 2 h and neutralized in 1 M Tris-HCl pH 7.6 before reblotting. For neutralizing experiments, NHEK were incubated with the appropriate antibodies for 2 h before stimulation.

NHEK [8] = test: S100A7 Western blotting in NHEK (Example 13); type: cell-based, human; conditions: 10 ng/ml, 96 h
Method: After 96 h of stimulation, NHEK lysis was performed as previously described (Boniface et al, 2005). After separation by SDS-PAGE, proteins were transferred to nitrocellulose membranes (Amersham pharmacia biotech) by electroblotting. S100A7 was detected with mouse anti-human S100A7 mAb (Imgenex, San Diego, Calif., USA) and sheep anti-mouse IgG peroxidase-conjugated polyclonal Ab (Amersham Biosciences). Bound Ab were detected by chemiluminescence (ECL Hyperfilm and ECL Plus Reagen, Amersham Biosciences Ltd).

NHEK [9] = test: In vitro keratinocyte migration assay; type: cell-based, human; conditions: mitomycin-treated wounded NHEK; OSM 10 ng/ml, IL-31 100 ng/ml
Method: Keratinocytes were cultured in wells pre-coated with type I collagen (200 μg/ml, Institut Jacques Boy, Reims, France) until they reached 80% confluency. Cells were starved for 48 h in Keratinocyte SFM and then treated with 10 μg/ml of mitomycin C (Sigma) for 2 h to prevent cell proliferation. A cell-free area was created by scraping the keratinocyte monolayer with a plastic pipette tip. Keratinocytes migration to the cell-free area was evaluated after 48 h of culture in the absence or presence of EGF or OSM. Using an inverted phase contrast microscope. The number of migrating keratinocytes was counted in 4 non-overlapping fields. Values represent the mean±SEM of cells per mm^2 beyond the frontiers of the in vitro injury. Student's t test was used for statistical analysis.

NHEK [10] = test: RT-real time PCR of S100 mRNA in cytokine-stimulated NHEK; type: cell-based, human; conditions: IL-31
Method: as §4

Molecule | Number of genes (of 154) whose expression is modified with at least a three fold increase or decrease (NHEK [1]) | BD2 production, single cytokines (NHEK [2]; 10 ng/ml) | Contribution to M5 activity on BD2 and CXCL8 production (successive removal) (NHEK [2]) | CK10, LOR and FLG expression (immunohistology) (RHE [3]; RHE) | IVL expression (immunohistology) (RHE [3]; RHE) | S100A7 expression (immunohistology) (RHE [3]; RHE) | RHE histology (RHE [3]) | Number of the 21 chemokine and antimicrobial peptide genes upregulated (NHEK [4]) | Number of KDM whose control mRNA expression is partially restored on removal of the cytokine from M5 (NHEK [5]) [KDM] | mRNA expression of CK1, DSG1, DSC1, FLG, CLSP, LOR and FABPS (NHEK [5]) | Decrease of the activity of the 5 cytokines reference mix on omission of the cytokine, S100A7 [6] [fold] | Decrease of the activity of the 5 cytokines reference mix on omission of the cytokine, hBD2/4 [6] [fold] | IVL mRNA expression (RHE [7]) | STAT3 tyrosine phosphorylation (P-STAT3) (STAT3) | BD3 production (NHEK [2]; 10 ng/ml) | CXCL1, CXCL5, CXCL8 production, single cytokines (NHEK [2]; 10 ng/ml) | S100A7 expression in NHEK (western blotting) (NHEK [8]) | Effect of depleting the cytokine from the mix on activity of the complete cocktail [6] | Keratinocyte migration to the cell-free area (NHEK [9]) | Expression of psoriasin and calgranulin A and B (S100A8-9) (NHEK [10])
IL-17A: recombinant cytokine; IL-17 designates IL-17A, IL-17B or a mixture, preferably IL-17A | at least five genes | most potent inducers | more critical to the activity of the M5 combination | did not exhibit any activity | discreetly induced | very slightly | does not modify RHE histology | 16 | 3 | minor activities | 4.5 | 36 | discretely inhibited | – | – | – | – | – | – | –
LIF: leukemia inhibitory factor, cytokine of the IL-6 family | – | – | – | – | – | – | – | – | – | – | – | – | – | no evidence for a STAT3 activation | – | – | – | – | – | –
IL-1α: recombinant cytokine IL-1α | at least five genes | most potent inducers | – | did not exhibit any activity | – | – | does not modify RHE histology | 19 | 3 | minor activities | – | – | – | – | significant increase | most effective | most potent inducer | did not significantly decrease the activity | – | –
B1 | – | – | – | – | – | – | – | – | – | – | – | – | – | recruits STAT3 signaling pathways | – | – | – | – | able to induce keratinocyte migration | induces expression
